Measurements taken from patent US12599602B2, “Methods for treating cholestasis” (Mirum Pharmaceuticals, Inc., priority 2019, dated 2026).
Where “and” joins values, the source holds several entries; their conditions need not be identical. Identical values can stand only once.

Legend:
[1] = system: Overweight and obese adults; assay: Phase 1 blinded, placebo-controlled, dose-ranging clinical study (NCT02475317), fecal bile acid excretion
Method: Participants consumed a low-fiber diet (<10 mg/day) for 2 days before randomization and during the 7-day treatment period. Measurements were taken of fBA, sBA concentration, and serum 7αC4 concentration (which is a biomarker of bile acid synthesis) prior to drug administration and at day 7.

[2] = system: Children with Progressive Familial Intrahepatic Cholestasis; assay: INDIGO phase 2 open-label efficacy and safety clinical study of maralixibat in PFIC; format: in vivo, human; conditions: for 7αC4:sBA ratio: high-dose responder
[3] = system: Participants with Primary Sclerosing Cholangitis (PSC); assay: CAMEO 14-week single-arm open-label phase 2a study of maralixibat in PSC; format: in vivo, human
Method: Participants were adults aged 18-80 years with a diagnosis of PSC. PSC diagnosis included a documented history of alkaline phosphatase (ALP) levels greater than 1.5 times above the upper limit of normal, biliary obstruction, and histological findings consistent with PSC diagnosis (if previously biopsied). The study enrolled 27 adults.
Efficacy was assessed by measuring at baseline and throughout the study sBA concentration, serum 7αC4 concentration (a marker of de novo bile acid synthesis), serum aoutotaxin concentration, LDL-C concentration, serum total cholesterol concentration, serum liver enzyme concentrations, and pruritus severity. Pruritus severity was determined by calculating Adult Itch Reported Outcome (ITCHRO) weekly sum scores and average daily scores (mean score over a 7-day period). Participants self-reported the ITCHRO daily on a scale 0-10 (0=no pruritus; 10=most severe pruritus).
Outcomes were assessed in the overall study population and in subgroups of participants (A) with any pruritus at baseline or (B) with an ITCHRO average daily score ≥4 out of 10 at baseline. Efficacy endpoints were based on change from baseline to week 14 or early termination (ET) and were analyzed using paired t-tests or Wilcoxon signed rank tests.

[4] = participants with ITCHRO daily score ≥4 at baseline, one line per Participant A-F
[5] = participants with an ITCHRO daily score ≥4 at baseline

Question: Which “fBA excretion, mean change from baseline” value ([1]; 20 mg dose, 7 days) does the source give for maralixibat here?
Answer: 532 µmol

Question: And the “fBA excretion, mean change from baseline” value ([1]; 50 mg BID, 7 days)?
Answer: 1251 µmol

Question: What about the “fBA excretion, mean change from baseline” value ([1]; 100 mg QD, 7 days) of the same substance?
Answer: 1144 µmol

Question: And the “Mean sBA levels” value ([1]; 7 days)?
Answer: not elevated

Question: And the fBA excretion ([1]; across doses)?
Answer: increased in a dose-dependent manner

Question: What about the “treatment-emergent adverse events occurring in over 10% of participants” value ([1]; all doses) of the same substance?
Answer: headache and diarrhea

Question: And the “treatment-emergent adverse events, severity” value ([1]; all doses)?
Answer: mild, and none were serious

Question: What about the “Mean serum 7αC4” value ([1]; baseline to day 7) of the same substance?
Answer: increased

Question: What about the multi-parameter response ([2]; all PFIC 1 patients and all patients harboring a truncating ABCB11 mutation) of the same substance?
Answer: not multi-parameter responders

Question: And the “serum ALT, AST, and bilirubin concentrations over time” value ([2]; all low-dose responders, e.g. within 2-6 months of first administration)?
Answer: normalized or only mildly elevated concentrations

Question: What about the “increase in C4 levels relative to baseline” value ([2]; all low-dose responders, within 13 weeks of first administration) of the same substance?
Answer: at least 2.5 fold

Question: And the “height Z-score” value ([2]; high dose responder, following treatment response on sBA)?
Answer: increase in height Z-score

Question: What about the “7αC4:sBA ratio” value ([2]; prior to administration of 560 μg/kg/day) of the same substance?
Answer: 12 times baseline

Question: What about the “7αC4:sBA ratio” value ([2]; upon administration of the higher dose (560 μg/kg/day)) of the same substance?
Answer: 1770 times baseline

Question: What about the “cholestasis markers after administration of the higher dose” value ([2]; low-dose responder losing response in long-term extension, 280 μg/kg BID from between 640 and 730 days) of the same substance?
Answer: sBA concentration decreased, severity of pruritus decreased, serum 7αC4 concentration increased, and 7αC4:sBA ratio increased

Question: And the “pruritus after administration of the higher dose” value ([2]; low-dose responder with sBA increase in long-term extension, 280 μg/kg BID from between 820 and 910 days)?
Answer: severity of pruritus subsequently decreased

Question: And the “7αC4 concentrations at 48 weeks” value ([2]; low-dose responders)?
Answer: 14 × baseline

Question: And the “growth (height Z-score change relative to baseline)” value ([2]; low-dose responders)?
Answer: improved growth relative to baseline

Question: And the “mean change from baseline at week 48 in 7αC4:sBA ratio” value ([2]; low-dose responders)?
Answer: 1388 times baseline ratio

Question: And the multi-parameter responder ([2]; mild PFIC 2 patients, 280 μg/kg QD)?
Answer: 1 of 7

Question: And the responders ([2]; moderate PFIC 2 patients, 280 μg/kg/day by week 48)?
Answer: 5 of 12

Question: And the high-dose responder ([2]; moderate PFIC 2 patients, responsive only after 280 μg/kg twice daily)?
Answer: 1 of 12

Question: And the “7αC4 concentrations at 48 weeks” value ([2]; non-responders)?
Answer: 1.8 × baseline

Question: What about the “growth (height Z-score change relative to baseline)” value ([2]; non-responders) of the same substance?
Answer: did not

Question: And the “mean change from baseline at week 48 in 7αC4:sBA ratio” value ([2]; non-responders)?
Answer: 1.9 times baseline ratio

Question: What about the “patients with ≥1.0 pt. reduction in ITCHRO(OBS) score” value ([2]; non-truncating BSEP mutations) of the same substance?
Answer: 10/19

Question: And the “duration of maintained response” value ([2]; responders)?
Answer: for over a year and for up to or beyond 5 years

Question: And the “ItchRO score, n: Improved by ≥1.0 points from baseline” value ([2]; responders (n = 6) by week 48)?
Answer: 4

Question: What about the “ItchRO score, n: Zero (no pruritus)” value ([2]; responders (n = 6) by week 48) of the same substance?
Answer: 2

Question: What about the “sBA levels, n: Normalized (±≤8.5 μmol/L)” value ([2]; responders (n = 6) by week 48) of the same substance?
Answer: 4

Question: And the “sBA levels, n: Reduced by ≥70% or ≥80% from baseline” value ([2]; responders (n = 6) by week 48)?
Answer: 2

Question: And the “patients responding at the higher dose” value ([2]; three non-truncating PFIC 2 patients without response at 280 μg/kg/day given 560 μg/kg/day)?
Answer: one

Question: What about the “ALT, change from baseline to week 48, mean” value ([2]; week 48) of the same substance?
Answer: −12 UI/L

Question: And the “C4, change from baseline to week 48, mean” value ([2]; week 48)?
Answer: +6.0 ng/mL

Question: And the “ItchRO(Obs) score, change from baseline to week 48, mean” value ([2]; week 48)?
Answer: −1.0

Question: What about the “PedsQL total score, change from baseline to week 48, mean” value ([2]; week 48) of the same substance?
Answer: +8.2

Question: And the “Total bilirubin, change from baseline to week 48, mean” value ([2]; week 48)?
Answer: +0.8 mg/dL

Question: And the “sBA, change from baseline to week 48, mean” value ([2]; week 48)?
Answer: -32 µmol/L

Question: What about the tolerability ([3]; adults with PSC, up to 10 mg/day) of the same substance?
Answer: well tolerated

Question: What about the “participants with worsening of pruritus by >1 point” value ([3]; baseline to week 14) of the same substance?
Answer: No participants

Question: What about the “7αC4, mean increase from baseline” value ([3]; overall) of the same substance?
Answer: 11.1 ng/mL

Question: What about the “Mean levels of 7αC4, increase from baseline” value ([3]; overall) of the same substance?
Answer: 130%

Question: And the “sBA levels, decrease from baseline” value ([3]; overall)?
Answer: 38%

Question: And the “sBA levels, mean change from baseline” value ([3]; overall)?
Answer: -14.8 µmol/L

Question: And the “Mean conjugated bilirubin levels, increase” value ([3]; overall population)?
Answer: 0.19 mg/dL

Question: And the “serum LCL-C concentration, change” value ([3]; overall population)?
Answer: -16.3 mg/dL

Question: And the “serum autotaxin concentration, change” value ([3]; overall population)?
Answer: -148 ng/mL

Question: What about the “total cholesterol, mean change” value ([3]; overall population) of the same substance?
Answer: -21.2 mg/dL

Question: And the “ITCHRO weekly sum scores, decrease from baseline” value ([3]; overall, baseline to week 14/ET)?
Answer: 51%

Question: What about the “Changes in serum total bilirubin, alanine aminotransferase, aspartate aminotransferase, and alkaline phosphatase concentrations” value ([3]; participants in the CAMEO clinical study) of the same substance?
Answer: not statistically significant

Question: And the “conjugated bilirubin levels, change” value ([3]; participants with ITCHRO daily score ≥0 at baseline)?
Answer: no significant change

Question: What about the “ItchRO average daily score (0-10 scale), Change from baseline to week 14/ET” value [3, 4] of the same substance?
Answer: −4.7 and −4.6 and −1.7 and −3.7 (2×) and −9.1

Question: And the “ItchRO average daily score (0-10 scale), Week 14/ET” value [3, 4]?
Answer: 0 (2×) and 1.3 and 5.1 and 3.1 and 2.3

Question: What about the autotaxin levels ([3]; participants with an ITCHRO daily score >4 at baseline) of the same substance?
Answer: significant reductions

Question: And the “ITCHRO weekly sum scores, decrease from baseline” value ([3]; participants with an ITCHRO daily score >4 out of 10 at baseline (n=6))?
Answer: 70%

Question: And the “Mean levels of 7αC4, increase from baseline” value [3, 5]?
Answer: 107%

Question: What about the “sBA levels, decrease from baseline” value [3, 5] of the same substance?
Answer: 45%

Question: What about the “total cholesterol, mean change” value [3, 5] of the same substance?
Answer: -32.0 mg/dL

Question: And the “participants in whom pruritus improved” value ([3]; participants with an ITCHRO score ≥4 at baseline)?
Answer: all 6

Question: What about the “ITCHRO weekly sum scores, decrease from baseline” value ([3]; participants with any pruritus at baseline (n=18)) of the same substance?
Answer: 53%
